Source: patent publication US20030108556A1 (priority 2001, published 2003)
“Also recorded” adds a separate entry of the source. Ends that are not written are not given here.

Experiments:
[1] = target: T1, PA63 heptamer (Bacillus anthracis, UniProt P13423); test: biochemical; assay type: binding
[2] = target: T1, PA63 heptamer

T1 sequence (P13423 197-764 limits assumed): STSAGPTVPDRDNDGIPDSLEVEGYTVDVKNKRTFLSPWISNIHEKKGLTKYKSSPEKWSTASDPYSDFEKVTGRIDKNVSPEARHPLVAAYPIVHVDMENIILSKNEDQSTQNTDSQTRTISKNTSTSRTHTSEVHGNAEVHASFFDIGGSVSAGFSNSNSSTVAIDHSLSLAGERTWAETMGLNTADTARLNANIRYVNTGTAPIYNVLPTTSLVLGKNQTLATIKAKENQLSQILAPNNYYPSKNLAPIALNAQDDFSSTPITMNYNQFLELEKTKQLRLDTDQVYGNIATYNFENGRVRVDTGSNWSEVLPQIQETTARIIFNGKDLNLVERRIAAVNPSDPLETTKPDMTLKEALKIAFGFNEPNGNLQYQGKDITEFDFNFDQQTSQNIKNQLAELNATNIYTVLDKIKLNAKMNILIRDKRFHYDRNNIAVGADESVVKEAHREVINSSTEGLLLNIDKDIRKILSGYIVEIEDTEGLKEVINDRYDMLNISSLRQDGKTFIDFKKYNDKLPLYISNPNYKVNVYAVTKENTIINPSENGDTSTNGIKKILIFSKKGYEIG

Substance	effect on binding of radiolabeled LFN to PA63 on CHO cells [1]	properties of phage compared with P1 and P2 [2]	other results
FDLPFTMSTPTP [reference compound]	no effect		
HTSTYWWLDGAP			IC50 [1]: ~150 µM
CWSSFAWYC		showed the same properties as P1 and P2	
HYTYWWL		showed the same properties as P1 and P2	
HTSTYWWLD	all but one, HTSTYWWLD, could prevent; also recorded: could not compete		
